# In ChEMBL document CHEMBL1201862, “PubChem BioAssay data set” (2004):
#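 Interpolation was linear, between the two tested concentrations surrounding the appropriate level; five concentrations were tested over 48 hours in 96-well plates. Here, GI50 denotes the concentration required for 50% inhibition of growth.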 Calls of active or inactive are those of the source. No stated cut-off is given here; in the data, active = GI50 up to about 1.1 µM and inactive = higher.
# How the values were obtained:
# Test in all cases: growth of human tumour cells (NCI), 48 h
# [1] = system: 786-0
# [2] = system: A549
# [3] = system: ACHN
# [4] = system: CCRF-CEM
# [5] = system: COLO 205
# [6] = system: EKVX
# [7] = system: HCC 2998
# [8] = system: HCT-116
# [9] = system: HCT-15
# [10] = system: HL-60
# [11] = system: HOP-62
# [12] = system: HT-29
# [13] = system: Hs-578T
# [14] = system: IGROV-1
# [15] = system: K562
# [16] = system: KM12
# [17] = system: M14
# [18] = system: MCF7
# [19] = system: MDA-MB-231
# [20] = system: MDA-MB-435
# [21] = system: MDA-N
# [22] = system: MOLT-4
# [23] = system: NCI-H460
# [24] = system: NCI-H522
# [25] = system: NCI/ADR-RES
# [26] = system: OVCAR-4
# [27] = system: OVCAR-5
# [28] = system: OVCAR-8
# [29] = system: PC-3
# [30] = system: RPMI-8226
# [31] = system: SF-268
# [32] = system: SF-295
# [33] = system: SF-539
# [34] = system: SK-MEL-28
# [35] = system: SK-MEL-5
# [36] = system: SK-OV-3
# [37] = system: SN12C
# [38] = system: SNB-19
# [39] = system: SNB-75
# [40] = system: SR
# [41] = system: SW-620
# [42] = system: T47D
# [43] = system: TK-10
# [44] = system: U-251
# [45] = system: UACC-257
# [46] = system: UO-31
# [47] = system: CAKI-1
# [48] = system: DU-145
# [49] = system: HOP-92
# [50] = system: LOX IMVI
# [51] = system: Malme-3M
# [52] = system: NCI-H226
# [53] = system: NCI-H23
# [54] = system: OVCAR-3
# [55] = system: RXF 393
# [56] = system: UACC-62
smiles,measurement,setting,value
CN(C)C12C=CC=CC3=C(c4ccccc4)C(c4ccccc4)=C(c4ccccc4)C31c1ccccc1C2 (stereo not given),GI50,[1],> 100 µM (inactive)
same,GI50,[2],> 100 µM (inactive)
same,GI50,[3],> 100 µM (inactive)
same,GI50,[4],> 100 µM (inactive)
same,GI50,[5],> 100 µM (inactive)
same,GI50,[6],> 100 µM (inactive)
same,GI50,[7],> 100 µM (inactive)
same,GI50,[8],> 100 µM (inactive)
same,GI50,[9],> 100 µM
same,GI50,[10],> 100 µM (inactive)
same,GI50,[11],> 100 µM (inactive)
same,GI50,[12],> 100 µM (inactive)
same,GI50,[13],> 100 µM (inactive)
same,GI50,[14],> 100 µM (inactive)
same,GI50,[15],> 100 µM (inactive)
same,GI50,[16],> 100 µM (inactive)
same,GI50,[17],> 100 µM (inactive)
same,GI50,[18],> 100 µM (inactive)
same,GI50,[19],> 100 µM (inactive)
same,GI50,[20],> 100 µM (inactive)
same,GI50,[21],> 100 µM (inactive)
same,GI50,[22],> 100 µM (inactive)
same,GI50,[23],> 100 µM (inactive)
same,GI50,[24],> 100 µM (inactive)
same,GI50,[25],> 100 µM (inactive)
same,GI50,[26],> 100 µM (inactive)
same,GI50,[27],> 100 µM (inactive)
same,GI50,[28],> 100 µM (inactive)
same,GI50,[29],> 100 µM (inactive)
same,GI50,[30],> 100 µM (inactive)
same,GI50,[31],> 100 µM (inactive)
same,GI50,[32],> 100 µM (inactive)
same,GI50,[33],> 100 µM (inactive)
same,GI50,[34],> 100 µM (inactive)
same,GI50,[35],> 100 µM (inactive)
same,GI50,[36],> 100 µM (inactive)
same,GI50,[37],> 100 µM (inactive)
same,GI50,[38],> 100 µM (inactive)
same,GI50,[39],> 100 µM (inactive)
same,GI50,[40],> 100 µM (inactive)
same,GI50,[41],> 100 µM (inactive)
same,GI50,[42],> 100 µM (inactive)
same,GI50,[43],> 100 µM (inactive)
same,GI50,[44],> 100 µM (inactive)
same,GI50,[45],> 100 µM (inactive)
same,GI50,[46],> 100 µM (inactive)
CCOC(=O)C(C)(C(=O)OCC)/C(Cl)=C\Cl,GI50,[1],> 100 µM (inactive)
same,GI50,[2],33.7 µM (inactive)
same,GI50,[3],> 100 µM (inactive)
same,GI50,[47],> 100 µM (inactive)
same,GI50,[4],> 100 µM (inactive)
same,GI50,[5],> 100 µM (inactive)
same,GI50,[48],> 100 µM (inactive)
same,GI50,[6],> 100 µM (inactive)
same,GI50,[7],0.0434 µM (active)
same,GI50,[8],> 100 µM (inactive)
same,GI50,[10],> 100 µM (inactive)
same,GI50,[11],> 100 µM (inactive)
same,GI50,[49],> 100 µM (inactive)
same,GI50,[12],> 100 µM (inactive)
same,GI50,[13],> 100 µM (inactive)
same,GI50,[14],> 100 µM (inactive)
same,GI50,[15],> 100 µM (inactive)
same,GI50,[16],> 100 µM (inactive)
same,GI50,[50],> 100 µM (inactive)
same,GI50,[17],> 100 µM (inactive)
same,GI50,[18],84.7 µM (inactive)
same,GI50,[19],> 100 µM (inactive)
same,GI50,[20],> 100 µM (inactive)
same,GI50,[21],> 100 µM (inactive)
same,GI50,[22],> 100 µM (inactive)
same,GI50,[51],> 100 µM (inactive)
same,GI50,[52],> 100 µM (inactive)
same,GI50,[53],> 100 µM (inactive)
same,GI50,[23],22.6 µM (inactive)
same,GI50,[24],> 100 µM (inactive)
same,GI50,[25],> 100 µM (inactive)
same,GI50,[54],> 100 µM (inactive)
same,GI50,[26],> 100 µM (inactive)
same,GI50,[27],> 100 µM (inactive)
same,GI50,[28],> 100 µM (inactive)
same,GI50,[29],> 100 µM (inactive)
same,GI50,[30],> 100 µM (inactive)
same,GI50,[55],> 100 µM (inactive)
same,GI50,[31],> 100 µM (inactive)
same,GI50,[32],> 100 µM (inactive)
same,GI50,[33],> 100 µM (inactive)
same,GI50,[34],> 100 µM (inactive)
same,GI50,[35],> 100 µM (inactive)
same,GI50,[36],> 100 µM (inactive)
same,GI50,[37],> 100 µM (inactive)
same,GI50,[38],> 100 µM (inactive)
same,GI50,[39],66.1 µM (inactive)
same,GI50,[40],> 100 µM (inactive)
same,GI50,[41],> 100 µM (inactive)
same,GI50,[42],> 100 µM (inactive)
same,GI50,[43],> 100 µM (inactive)
same,GI50,[45],> 100 µM (inactive)
same,GI50,[56],> 100 µM (inactive)
same,GI50,[46],> 100 µM (inactive)
